In patent publication US11298343B2, “Method for treating thalassemia” (ST. JUDE CHILDREN'S RESEARCH HOSPITAL, priority 2017, dated 2022):
Residues, ends and D or L forms follow the SMILES beside them. *: point of attachment. Cbz = O=C(OCc1ccccc1)*

Key:
[1] = system: β-thalassemic erythroblasts; assay: Cell survival of treated erythroblasts derived from β-thalassemia patient CD34+ cells; conditions: added day 13, 48 hours
Text: Erythroid differentiation and maturation were monitored by flow cytometry with an LSR/Fortessa cell analyzer (BD Biosciences), using the following antibodies: anti-CD235a (BD Biosciences), anti-Band3, and anti-α4-integrin (Miltenyi).

[2] = system: electron-dense α-globin inclusions in reticulocytes; assay: Transmission electron microscopy of electron-dense aggregates in reticulocytes of treated mice; format: in vivo; conditions: β-thalassemic mice treated with rapamycin vs vehicle-treated controls; P<0.0001
Experimental: Samples were fixed in 2.5% glutaraldehyde in 0.1M sodium cacodylate buffer, pH 7.4, and embedded in 2% low-gelling-temperature agarose. The samples were post-fixed in 2% osmium tetroxide in 0.1M cacodylate buffer with 0.3% potassium ferrocyanide for 1.5 hours, dehydrated through a graded series of ethanol/propylene oxide solutions, then infiltrated with and embedded in epoxy resin, which was polymerized at 70° C. overnight. Semi-thin (0.5 μm) sections were stained with toluidine blue for light microscope examination. Ultra-thin (80 nm) sections were cut and imaged using an FEI Tecnai 200 Kv FEG Transmission Electron Microscope with an ATM XR41 digital camera.
Areas of electron-dense α-globin inclusions in reticulocytes were quantified by automated image analysis of electron micrographs. TEM images were analyzed with the FIJI software program and the Trainable Weka Segmentation plugin to produce pixel-based segmentations in order to quantify differences in the numbers and areas of intracytoplasmic hemoglobin precipitates in thalassemic and non-thalassemic samples (Schindelin, et al. (2012) Nat. Meth. 9:676-682; Arganda-Carreras, et al. (2017) Bioinformatics 33:2424-2426).
(§1) Tissue samples were submitted for pathology analysis.
(§2) Insoluble α-globin in reticulocytes from rapamycin-treated Hbb^Th3/+ mice was decreased by approximately 50% (FIG. 2).

[3] = system: insoluble α-globin; assay: Detection of insoluble α-globin precipitates (TAU gel) in erythroid cells of treated mice; format: in vivo; conditions: FIG. 2
Experimental: Briefly, 20 μL of washed RBCs (normalized based on the hematocrit percentage) were lysed and centrifuged at 16,000×g at 4° C. for 30 minutes. The pellets were washed extensively in ice-cold 0.05×PBS. Membrane lipids were extracted with 56 mM sodium borate, pH 8.0, containing 0.1% TWEEN-20, at 4° C. Precipitated globins were dissolved in 8M urea, 10% acetic acid, 10% β-mercaptoethanol, and 0.04% pyronin, fractionated by TRITON-acetic acid-urea (TAU) gel electrophoresis, and stained with COOMASSIE brilliant blue. Soluble hemoglobin fractions were analyzed and quantified as loading controls by using AlphaView SA 3.4.0 (ProteinSimple).
as §1, §2

[4] = system: β-thalassemic and control mice; assay: Pathology grading of erythropoiesis (bone marrow, spleen, liver) in rapamycin-treated mice; format: in vivo; conditions: rapamycin 30 days; for Bone marrow erythropoiesis grade / Liver erythropoiesis grade / Spleen erythropoiesis grade: grade scale 0-5; for Final grade (sum of the grades of the three tissues): scale 0-15
Experimental: Bright-field images of hematoxylin and eosin-stained tissues were acquired with a Nikon Eclipse Ni microscope. Morphologic phenotyping of all cohorts was carried out in a blinded manner by a board-certified veterinary pathologist. A semi-quantitative grading method was used to highlight visual differences in the erythropoiesis in each cohort. The bone marrow, spleen, and liver were first analyzed separately using the following grading scale: grade 0: within normal limits; grade 1: minimal; grade 2: mild; grade 3: moderate; grade 4: marked; grade 5: severe. A total grade for erythropoiesis (final grade) was calculated based on the sum of the grades for each of the three tissues. […] No mouse received a grade consistent with a severe increase in erythropoiesis.
as §1

[5] = system: free α-globin in β-thalassemic erythroblasts; assay: Free α-globin by HPLC in erythroblasts derived from β-thalassemia patient CD34+ cells; format: cell-based, human; conditions: for reduction of free α-globin: rapamycin 10 μM or 20 μM added day 13, HPLC two days later
Experimental: Cells were lysed in Hemolysate reagent (Helena Laboratories, Beaumont, Tex.) and centrifuged. Analysis of globin chains in the supernatant was performed by ion exchange (IE) and reverse phase (RP)-HPLC (Prominence UFLC, Shimadzu). Proteins eluting from the column were quantified by light absorbance at 220, 280, and 415 nm with a diode array detector. The relative amount of free α-globin was calculated from the area of the peak for each condition at 415 nm and normalized based on the DMSO control. The percentage was calculated as follows: % α-globin=[α-chain/ρ-chain (β+γ+δ)×100].

[6] = system: β-thalassemic and control mice; assay: Hematologic analysis of mice treated with rapamycin for 30 days; format: in vivo
Experimental: Mice were analyzed at 1-6 months of age. Blood was collected by submandibular bleeding, anticoagulated with EDTA, and analyzed on a FORCYTE Veterinary Hematology Analyzer.
as §1

[7] = system: Hbb^Th3/+ reticulocytes; assay: Reticulocyte pulse-chase analysis of insoluble α-globin turnover with inhibitors; format: cell-based, mice; conditions: 6 hours chase, 10 μM MG132, 100 μM chloroquine or 0.2 μM bafilomycin A1
Experimental: Briefly, reticulocytes were pulse-labeled with ^35S-cysteine and ^35S-methionine for 30 minutes then chased with unlabeled amino acids±proteasome inhibitor (10 μM MG132) and/or lysosome inhibitor (100 μM chloroquine or 0.2 μM bafilomycin A1). Insoluble α-globin was isolated by TAU gel electrophoresis, analyzed by autoradiography, and quantified using AlphaView SA 3.4.0 (ProteinSimple).
To investigate how the depletion of ULK1 or ATG5 affects the turnover of insoluble α-globin in β-thalassemia, mutant reticulocytes were pulse-labeled with ^35S-labeled amino acids, chased for various times with unlabeled amino acids with or without various inhibitors, and the soluble and insoluble nascent radiolabeled α-globin in cell lysates was quantified.

[8] = system: Hbb^Th3/+ mice; conditions: systemic administration (Khandros 2012); cited from earlier work
[9] = Hbb^+/+ Ulk1^+/+ mice, rapamycin 4 mg/kg i.p. daily 30 days, mean ± SD
[10] = Hbb^Th3/+ Ulk1^+/+ mice, rapamycin 4 mg/kg i.p. daily 30 days, mean ± SD
[11] = Hbb^Th3/+ Ulk1^−/− mice, rapamycin 4 mg/kg i.p. daily 30 days, mean ± SD
[12] = β-thalassemic mice, rapamycin 4 mg/kg i.p. daily 30 days vs vehicle, P<0.001

With `CO[C@H]1C[C@@H]2CC[C@@H](C)[C@@](O)(O2)C(=O)C(=O)N2CCCC[C@H]2C(=O)O[C@H]([C@H](C)C[C@@H]2CC[C@@H](O)[C@H](OC)C2)CC(=O)[C@H](C)/C=C(\C)[C@@H](O)[C@@H](OC)C(=O)[C@H](C)C[C@H](C)/C=C/C=C/C=C/1C` [rapamycin] the “effect on cell survival” value [1] was “no deleterious effect on cell survival”, the “reduction in electron-dense aggregates in reticulocytes (TEM)” value [2] was “approximately 60%” and the “effect on the accumulation of insoluble α-globin” value ([3]; Hbb^Th3/+Ulk1^−/− mice) was “no effect”. The “decrease of insoluble α-globin in reticulocytes” value ([3]; rapamycin-treated Hbb^Th3/+ mice) was “approximately 50%”, the “Bone marrow erythropoiesis grade” value ([4]; Hbb^+/+ Ulk1^+/+ mice) was 0.00 ± 0.00^ns and the Liver erythropoiesis grade ([4]; Hbb^+/+ Ulk1^+/+ mice) was 0.44 ± 0.53^ns. The Spleen erythropoiesis grade ([4]; Hbb^+/+ Ulk1^+/+ mice) was 0.00 ± 0.00^ns, the “Final grade (sum of the grades of the three tissues)” value (“Final grade” below) ([4]; Hbb^+/+ Ulk1^+/+ mice) was 0.44 ± 0.53^ns and the “Bone marrow erythropoiesis grade” value ([4]; Hbb^Th3/+ Ulk1^+/+ mice) was 1.75 ± 1.67^ns. For the same compound, the Liver erythropoiesis grade ([4]; Hbb^Th3/+ Ulk1^+/+ mice) was 0.87 ± 0.35^ns, the Spleen erythropoiesis grade ([4]; Hbb^Th3/+ Ulk1^+/+ mice) was 2.37 ± 0.52 and the “Final grade” value ([4]; Hbb^Th3/+ Ulk1^+/+ mice) was 5.00 ± 1.85. For the same compound, the “Bone marrow erythropoiesis grade” value ([4]; Hbb^Th3/+ Ulk1^−/− mice) was 3.30 ± 0.48^ns, the Liver erythropoiesis grade ([4]; Hbb^Th3/+ Ulk1^−/− mice) was 1.10 ± 0.31 and the Spleen erythropoiesis grade ([4]; Hbb^Th3/+ Ulk1^−/− mice) was 3.20 ± 0.79^ns. The “Final grade” value ([4]; Hbb^Th3/+ Ulk1^−/− mice) was 7.60 ± 1.07^ns, the “reduction of free α-globin” value ([5]; NTD β-thalassemic erythroblasts, P<0.001) was 85% and the “reduction of free α-globin” value ([5]; TD β-thalassemia erythroblasts, P<0.0001) was 40%. For the same compound, the Hb [6, 9] was 13.78 ± 1.99^ns g/dL, the Hct [6, 9] was 40.98 ± 5.75^ns % and the MCH [6, 9] was 14.53 ± 0.53^ns pg. The MCHC [6, 9] was 33.66 ± 0.76^ns g/dL, the MCV [6, 9] was 42.89 ± 1.61^ns fL and the RDW [6, 9] was 14.40 ± 0.91^ns %. For the same compound, the Reticulocytes [6, 9] was 2.90 ± 1.21^ns %, the Hb [6, 10] was 10.33 ± 1.07 g/dL and the Hct [6, 10] was 29.42 ± 3.59 %. For the same compound, the MCH [6, 10] was 11.56 ± 1.21 pg, the MCHC [6, 10] was 35.54 ± 1.01 g/dL and the MCV [6, 10] was 32.67 ± 3.02 fL. For the same compound, the RDW [6, 10] was 31.05 ± 5.23 %, the Reticulocytes [6, 10] was 13.06 ± 6.67 % and the Hct [6, 11] was 25.42 ± 4.59^ns %. The MCH [6, 11] was 15.08 ± 1.31^ns pg, the MCHC [6, 11] was 34.99 ± 2.14^ns g/dL and the MCV [6, 11] was 43.03 ± 1.62 fL. For the same compound, the RBC [6, 11] was 5.81 ± 0.99^ns ×10^6/μL, the RDW [6, 11] was 39.73 ± 0.66^ns % and the Reticulocytes [6, 11] was 34.35 ± 2.78^ns %. For the same compound, the “effect on RBC indices or erythropoiesis” value ([6]; wild-type or Hbb^Th3/+Ulk1^−/− mice) was “no effect”, the “decrease in reticulocyte count” value [6, 12] was 44% and the “increase in RBC count” value [6, 12] was 27%. For the same compound, the “increase in Hb” value ([6]; β-thalassemic mice, rapamycin 4 mg/kg i.p. daily 30 days vs vehicle, P<0.05) was 10%.

In the case of `CC(C)C[C@@H](C=O)NC(=O)[C@H](CC(C)C)NC(=O)[C@H](CC(C)C)NC(=O)OCc1ccccc1` [MG132] (Cbz-Leu-Leu-Leu-aldehyde), the “sensitivity of clearance of labeled insoluble α-globin to the inhibitor” value [7] is reported as “sensitive”, the “effect on cell survival” value [1] is reported as “induced cell death” and the “free α-globin levels” value ([5]; β-thalassemic erythroblasts, MG132 1 μM or 2.5 μM added day 13, HPLC two days later) is reported as “raised free α-globin levels”.

With `CO/C1=C\C(C)=C\[C@@H](C)[C@@H](O)[C@@H](C)C/C(C)=C/C=C/[C@H](OC)[C@@H]([C@@H](C)[C@@H](O)[C@H](C)[C@@]2(O)C[C@@H](O)[C@H](C)[C@@H](C(C)C)O2)OC1=O` [bafilomycin A1] the “sensitivity of clearance of labeled insoluble α-globin to the inhibitor” value [7] was “sensitive”.

For `CC(C)C[C@H](NC(=O)[C@H](Cc1ccccc1)NC(=O)c1cnccn1)B(O)O` [bortezomib], the “induction of autophagy and heat-shock proteins” value [8] is listed as “induced both autophagy and heat-shock proteins” and the “insoluble α-globin” value [8] is listed as “no net increase in insoluble α-globin”.
